Measured values from ChEMBL document CHEMBL3611975, “New carbocyclic N(6)-substituted adenine and pyrimidine nucleoside analogues with a bicyclo[2.2.1]heptane fragment as sugar moiety; synthesis, antiviral, anticancer activity and X-ray crystallography” (Bioorg Med Chem, 2015).
pEC50: −log10 of the molar value.

Columns and labels:
OVCAR-8 = test: Cytotoxicity against human OVCAR8 cells assessed as growth at 10^-5 M relative to control
BT-549 = test: Cytotoxicity against human BT549 cells assessed as growth at 10^-5 M relative to control
MCF7 = test: Cytotoxicity against human MCF7 cells assessed as growth at 10^-5 M relative to control
CCRF-CEM = test: Cytotoxicity against human CCRF-CEM cells assessed as growth at 10^-5 M relative to control
MDA-MB-231 = test: Cytotoxicity against human MDA-MB-231 cells assessed as growth at 10^-5 M relative to control
[1] = Cytotoxicity against MDCK cells assessed as cell viability after 48 hrs by MTT assay; format: cell-based, Canis lupus familiaris; settings: dog, read-out: CTD50
UO-31 = test: Cytotoxicity against human UO31 cells assessed as growth at 10^-5 M relative to control
HOP-62 = test: Cytotoxicity against human HOP62 cells assessed as growth at 10^-5 M relative to control
RPMI-8226 = test: Cytotoxicity against human RPMI8226 cells assessed as growth at 10^-5 M relative to control
UACC-257 = test: Cytotoxicity against human UACC257 cells assessed as growth at 10^-5 M relative to control
SNB-75 = test: Cytotoxicity against human SNB75 cells assessed as growth at 10^-5 M relative to control
HL-60(TB) = test: Cytotoxicity against human HL-60(TB) cells assessed as growth inhibition at 10^-5 M relative to control; format: functional; settings: read-out: GI
786-0 = test: Cytotoxicity against human 786-0 cells assessed as growth at 10^-5 M relative to control
MDA-MB-468 = test: Cytotoxicity against human MDA-MB-468 cells assessed as growth at 10^-5 M relative to control
SN12C = test: Cytotoxicity against human SN12C cells assessed as growth at 10^-5 M relative to control
M14 = test: Cytotoxicity against human M14 cells assessed as growth at 10^-5 M relative to control
OVCAR-3 = test: Cytotoxicity against human OVCAR3 cells assessed as growth at 10^-5 M relative to control
PC-3 = test: Cytotoxicity against human PC3 cells assessed as growth at 10^-5 M relative to control
Coxsackievirus B4 = test: Antiviral activity against Human coxsackievirus B4 Powers infected in African green monkey Vero cells assessed as decrease in virus titer after 72 hrs by MTT assay; format: functional, organism-based; settings: Enterovirus B
[2] = Cytotoxicity against human Hs578T cells assessed as growth at 10^-5 M relative to control; settings: Hs-578T
NCI-H226 = test: Cytotoxicity against human NCI-H226 cells assessed as growth at 10^-5 M relative to control
NCI-H522 = test: Cytotoxicity against human NCI-H522 cells assessed as growth at 10^-5 M relative to control
[3] = Cytotoxicity against human EKVX cells assessed as growth at 10^-5 M relative to control
SF-295 = test: Cytotoxicity against human SF295 cells assessed as growth at 10^-5 M relative to control

Row | SMILES | growth, % of control at 10 µM (OVCAR-8) | growth, % of control at 10 µM (BT-549) | growth, % of control at 10 µM (MCF7) | growth, % of control at 10 µM (CCRF-CEM) | growth, % of control at 10 µM (MDA-MB-231) | CC50 at 48 h [1] | growth, % of control at 10 µM (UO-31) | growth, % of control at 10 µM (HOP-62) | growth, % of control at 10 µM (RPMI-8226) | growth, % of control at 10 µM (UACC-257) | growth, % of control at 10 µM (SNB-75) | inhibition of growth at 10 µM (HL-60(TB)) | growth, % of control at 10 µM (786-0) | growth, % of control at 10 µM (MDA-MB-468) | growth, % of control at 10 µM (SN12C) | growth, % of control at 10 µM (M14) | growth, % of control at 10 µM (OVCAR-3) | growth, % of control at 10 µM (PC-3) | pEC50 (Coxsackievirus B4) | growth, % of control at 10 µM [2] | also measured
1 | OC[C@H]1[C@@H]2C[C@H](n3cnc4c(NCCc5ccccc5)ncnc43)[C@H]1C[C@@H]2Cl | 95.7% | 96.1% | 89.9% | 87.6% | 104% | 143 µM | 73.8% | 94.2% | 87.9% | 103% | 106% | 120% | 97% | 89.4% | 99.9% | 101% | 110% | 89.1% | 5.40 |  | 
2 | COc1ccc(CCNc2ncnc3c2ncn3[C@H]2C[C@H]3[C@H](CO)[C@@H]2C[C@@H]3Cl)cc1 | 101% | 86.8% | 94.1% | 108% | 100% | 350 µM | 81% | 107% | 82.5% | 99.4% | 92.8% | 94.7% | 101% | 101% | 102% | 98.3% | 111% | 102% | < 5.05 | 93.6% | growth, % of control at 10 µM (NCI-H226): 102%; growth, % of control at 10 µM (NCI-H522): 56.7%; growth, % of control at 10 µM [3]: 100%; growth, % of control at 10 µM (SF-295): 104%
3 | CCOc1ncnc2c1ncn2[C@H]1C[C@H]2[C@H](CO)[C@@H]1C[C@@H]2Cl | 106% | 106% | 95.2% | 129% | 97.9% | > 1020 µM | 88.1% | 106% | 121% | 106% | 83.1% | 95.4% | 108% | 98.6% | 108% | 111% | 111% | 104% | < 3.99 | 108% | growth, % of control at 10 µM (NCI-H226): 94.5%; growth, % of control at 10 µM (NCI-H522): 92.4%; growth, % of control at 10 µM [3]: 95.8%; growth, % of control at 10 µM (SF-295): 108%
